Measured values reported in patent publication US5135955A, “Propanamine derivatives” (Eli Lilly and Company, priority 1989, dated 1992).
Structures can show the parent of a compound that is named as a salt.

Tested on: thromboplastin clotting time in human plasma
Experiment: prothrombin time test (thromboplastin clotting time in human plasma)
Format: biochemical
Conditions: for plasma prothrombin time: 37° C., human plasma
Description: Briefly, to 0.1 ml of each of human plasma, normal saline and thromboplastin was added 0.03 ml of the test compound of the present invention (2 mg/ml in 50 percent methanol). The clotting time was measured at 37° C. with a Fibrometer.
^a Expressed in seconds
^b Concentration of compound tested in micrograms per milliliter of […]

[1] = 45 micrograms per milliliter of plasma
[2] = 90 micrograms per milliliter of plasma
[3] = 180 micrograms per milliliter of plasma
[4] = 22 micrograms per milliliter of plasma
[5] = 11 micrograms per milliliter of plasma
[6] = 11 micrograms per milliliter of plasma, hydrochloride
[7] = 22 micrograms per milliliter of plasma, hydrochloride
[8] = 45 micrograms per milliliter of plasma, hydrochloride
[9] = 90 micrograms per milliliter of plasma, hydrochloride

SMILES | plasma prothrombin time [1] [s] | plasma prothrombin time [2] [s] | plasma prothrombin time [3] [s] | further results
COc1ccc(C(CN)Cc2ccc(-c3ccccc3)cc2)cc1OC (stereo not drawn) [Example 8, β-(3,4-Dimethoxy)phenyl[1,1'-biphenyl]-4-propanamine hydrochloride] | 23 | 45 | 130 | –
Cl.NCC(Cc1ccc(-c2ccccc2)cc1)c1ccccc1 (stereo not drawn) [Example 7, β-Phenyl[1,1'-biphenyl]-4-propanamine hydrochloride] | 36 | 200 | > 300 | plasma prothrombin time [4]: 25 s
CCCCCCCCCOc1ccc(CCC(C)NCCN(C)C)cc1 (stereo not drawn) [Example 54, N,N-Dimethyl-N'-[1-methyl-3-[4-(nonyloxy)phenyl]propyl]-1,2-ethanediamine dihydrochloride] | 37 | 99 | > 300 | –
CCC(CCc1ccc(OCC2CCCCC2)cc1)N(C)C (stereo not drawn) [Example 38, 4-(Cyclohexylmethoxy)-α-ethyl-N,N-dimethylbenzenepropanamine hydrochloride] | – | – | – | plasma prothrombin time [5]: 22 s
CC(CCc1ccc(OCCC(C)(C)C)cc1)N(C)C.Cl (stereo not drawn) [Example 75, 4-(3,3-Dimethylbutoxy)-N,N,αtrimethylbenzenepropanamine hydrochloride] | – | – | 90 | plasma prothrombin time [6]: 18 s; plasma prothrombin time [7]: 23 s; plasma prothrombin time [8]: 32 s; plasma prothrombin time [9]: 52 s
CCCCCCCCOc1ccc(CC(CN)c2ccc(OC)c(OC)c2)cc1 (stereo not drawn) [Example 17, 4-(Octyloxy)-β-(3,4-dimethoxy)phenylbezenenepropanamine hydrochloride] | 48 | 81 | 240 | plasma prothrombin time [4]: 21 s
CCCCCCCOc1ccc(CCC(C)NCCN(C)C)cc1 (stereo not drawn) [Example 49, N'-[3-[4-(Heptyloxy)phenyl]-1-methylpropyl]-N,N-dimethyl-1,2-ethanediamine dihydrochloride] | 36 | 167 | 260 | plasma prothrombin time [5]: 22 s; plasma prothrombin time [4]: 34 s
NCC(Cc1ccc(C(F)(F)F)cc1)c1ccccc1 (stereo not drawn) [Example 35, β-Phenyl-4-(trifluoromethyl)benzenepropanamine] | – | – | 68 | –
CCCCCCCOc1ccc(CC(CN)c2ccc(C(CN)Cc3ccc(OCCCCCCC)cc3)cc2)cc1.Cl.Cl (stereo not drawn) [Example 13, β,β'-Bis[[4-(heptyloxy)phenyl]methyl]-1,4-benzenediethanamine dihydrochloride] | – | – | 200 | –
COCCOc1ccc(CCC(C)N(C)C)cc1.Cl (stereo not drawn) [Example 76, 4-(2-Methoxyethoxy)-N,N,α-trimethylbenzenepropanamine hydrochloride] | 17 | 17 | 18 | –
Cl.NCC(Cc1ccc2c(c1)OCO2)c1ccc(-c2ccccc2)cc1 (stereo not drawn) [Example 32, β-[1,1'-Biphenyl]-4-yl-1,3-benzodioxole-5-propanamine hydrochloride] | 27 | 66 | 222 | –
Cl.NCC(Cc1ccc2c(c1)OCO2)c1ccccc1 (stereo not drawn) [Example 34, β-Phenyl-1,3-benzodioxole-5-propanamine hydrochloride] | – | – | 21 | –
CCCCCCCCCCOc1ccc(CCC(C)N)cc1 (stereo not drawn) [Example 50, 4-(Decyloxy)-α-methylbenzenepropanamine hydrochloride] | 21 | 36 | 100 | –
CCCCC(CC)COc1ccc(CC(CN)c2ccccc2)cc1.Cl (stereo not drawn) [Example 3, 4-[(2-Ethylhexyl)oxy]-β-phenylbenzenepropanamine hydrochloride] | – | – | – | prothrombin time (28 micrograms per ml): 16 s; prothrombin time (69 micrograms per ml): 25 s; prothrombin time (139 micrograms per ml): 80 s
COc1ccc(C(CN)Cc2ccc(-c3ccccc3)cc2)cc1 (stereo not drawn) [Example 9, β-(4-Methoxy)phenyl[1,1'-biphenyl]-4-propanamine] | – | – | 25 | –
CCCCCCOc1ccc(CC(CNC(C)C)c2ccccc2)cc1.Cl (stereo not drawn) [Example 30, N-Isopropyl-4-(hexyloxy)-β-phenylbenzenepropanamine hydrochloride] | – | – | 69 | –
CCCCCCCOc1ccc(CC(CN)c2ccccc2)cc1.Cl (stereo not drawn) [Example 5, 4-(Heptyloxy)-β-phenylbenzenepropanamine hydrochloride] | 25 | 53 | 190 | –

SMILES | plasma prothrombin time [1] [s] | plasma prothrombin time [2] [s] | plasma prothrombin time [3] [s] | further results
CCCCCCCOc1ccc(CC(CN)c2ccc(OC)c(OC)c2)cc1 (stereo not drawn) [Example 20, 4-(Heptyloxy)-β-(3,4-dimethoxy)phenylbenzenepropanamine] | 36 | 74 | > 200 | –
CC(CCc1ccc(OCc2ccc(F)cc2)cc1)N(C)C.Cl (stereo not drawn) [Example 82, 4-[(4-Fluorophenyl)methoxy]-N,N,α-trimethylbenzenepropanamine hydrochloride] | 24 | 29 | 75 | plasma prothrombin time [5]: 18 s; plasma prothrombin time [4]: 19 s
COc1cccc(C(CN)Cc2ccc3ccccc3c2)c1OC (stereo not drawn) [Example 25, β-(2,3-Dimethoxyphenyl)-2-naphthalenepropanamine] | 22 | 29 | 50 | –
CCCCCOc1ccc(CC(CN)c2ccc(OC)c(OC)c2)cc1 (stereo not drawn) [Example 15, 4-(Pentyloxy)-β-3,4-(dimethoxy)phenylbenzenepropanamine] | 21 | 30 | 80 | –
CC(CCc1ccc(OCC2CCCC2)cc1)N(C)C (stereo not drawn) [Example 81, 4-Cyclopentylmethoxy-N,N-α-trimethylbenzenepropanamine] | 20 | 25 | 47 | –
CCCCCCOc1ccc(CC(CNCC)c2ccccc2)cc1 (stereo not drawn) [Example 28, N-Ethyl-4-(hexyloxy)-β-phenylbenzenepropanamine] | 23 | 35 | 110 | plasma prothrombin time [4]: 17 s
CCCCCCOc1ccc(CC(CN)c2ccc3ccccc3c2)cc1.Cl (stereo not drawn) [Example 10, β-[[4-(Hexyloxy)phenyl]methyl]-2-naphthaleneethanamine hydrochloride] | – | – | 60 | –
COc1ccc(C(CN)Cc2cccc3ccccc23)cc1 (stereo not drawn) [Example 24, β-(4-Methoxy)phenyl-1-naphthalenepropanamine] | 22 | 28 | 48 | –
NC(CCc1ccc(OCC2CCCCC2)cc1)C1CC1 (stereo not drawn) [Example 37, 4-(Cyclohexylmethoxy)-α-cyclopropylbenzenepropanamine hydrochloride] | – | – | – | plasma prothrombin time [5]: 22 s
CC(CCc1ccc(OCCC(C)(C)C)cc1)N(C)C.Cl (stereo not drawn) [Example 79, 4-(3,3-Dimethylbutoxy)-N,N,α-trimethylbenzenepropanamine hydrochloride] | – | – | 90 | plasma prothrombin time [6]: 19 s; plasma prothrombin time [7]: 21 s; plasma prothrombin time [8]: 31 s; plasma prothrombin time [9]: 55 s
CCCCOc1ccc(CCC(C)N2CCCC2)cc1.Cl (stereo not drawn) [Example 77, 1-[3-[4-(Butoxy)phenyl]-1-methylpropyl]-pyrrolidine hydrochloride] | 23 | 24 | 53 | plasma prothrombin time [5]: 15 s; plasma prothrombin time [4]: 16 s
CCCCCCCCOc1ccc(CC(CN)c2ccc(-c3ccccc3)cc2)cc1 (racemic) [Example 11, (±)-β-[[4-(Octyloxy)phenyl]methyl][1,1'-biphenyl-4-ethanamine hydrochloride] | – | – | 20 | –
CCCCCOc1ccc(CC(CN)c2ccc(OC)c(OC)c2OC)cc1 (stereo not drawn) [Example 19, 4-(Pentyloxy)-β-(2,3,4-trimethoxy)phenylbenzenepropanamine hydrochloride] | – | – | 174 | –
CCCCCCCOc1ccc(CCC(C)N)cc1 (stereo not drawn) [Example 51, 4-(Heptyloxy)-α-methylbenzenepropanamine hydrochloride] | 25 | 52 | > 300 | –
CC(CCc1ccc(C(C)(C)C)cc1)N(C)C.Cl (stereo not drawn) [Example 83, 4-(1,1-Dimethylethyl)-N,N,α-trimethylbenzenepropanamine hydrochloride] | 21 | 26 | 37 | –
COc1ccc(C(CN)Cc2ccc(OC)c3ccccc23)cc1OC (stereo not drawn) [Example 23, β(3,4-Dimethoxy)phenyl-1-(4-methoxy)naphthalenepropanamine hydrochloride] | – | – | 101 | –
CCCCCCCCCOc1ccc(CCC(C)NCCN2CCOCC2)cc1 (stereo not drawn) [Example 53, N-[1-Methyl-3-[4-(nonyloxy)phenyl]propyl]-4-morpholineethanamine dihydrochloride] | 23 | 53 | 240 | –
